Data published in US20220273793A1, “HORSE IL-31 INDUCED PRURITUS MODEL” (priority 2021, published 2022).
Values joined by “and” are separate entries in the source; they are usually repeats but may differ in a detail not shown here. Identical values can stand only once.

System: equine IL-31
Assay: Equine challenge study using the IL-31 itch model after IL-31 mimotope vaccines
Assay type: in vivo, Horse
Details: for 1st Challenge Score (pruritus score): CRM197 conjugate 25 μg/dose, SP oil + CpG, IL-31 challenge Day 14 post-boost; for 1st Challenge Score (pruritus score) / Percent Change, 1st Challenge vs Historical Score / Percent Change, 2nd Challenge vs Historical Score / 2nd Challenge Score (pruritus score): individual horses; for 1st Challenge Average % Change in pruritus scores / Percent Change, 1st Challenge vs Historical Score: Day 14 post-boost; for 1st Challenge Average % Change in pruritus scores / 2nd Challenge Average % Change in pruritus scores: group mean; for 2nd Challenge Average % Change in pruritus scores / Percent Change, 2nd Challenge vs Historical Score: Day 105 post-boost; for 2nd Challenge Score (pruritus score): IL-31 challenge Day 105 post-boost; for reduction in itch (relative to historic scores): vaccinated horses, after 105 days of the final booster dose
From the text: Based on the high antibody titers elicited by horses vaccinated with CRM197 conjugated IL 31 mimotopes (FIG. 4), horses from the serology studies were utilized in a challenge study using the IL-31 itch model developed by the present inventors. Selected horses were vaccinated with an additional boost of the corresponding mimotope vaccines, after conclusion of the serology study, and were challenged with IL-31 at Day 14 after the final boost and at Day 105 after the final boost.
Various candidate IL-31 mimotope constructs were evaluated, including ZTS-7240 (comprising SEQ ID NO:4) mimotope (constrained) corresponding to the 1505 region and ZTS-241 (comprising SEQ ID NO:6) mimotope (linear) corresponding to the A helix of the IL-31 homology model (FIG. 2). Study design is outlined in Table 6 below:
There were no treatment groups T02 and T04 assigned in this study in order to continue to keep the group designations of respective horses from the first serology study. One horse each from treatment groups T02 and T04 from the first serology were used in treatment group T08 as negative controls (No booster dose given; challenged on Day 14 and Day 105 along with other treatment groups).

Sequence of equine IL-31 (as listed by the source): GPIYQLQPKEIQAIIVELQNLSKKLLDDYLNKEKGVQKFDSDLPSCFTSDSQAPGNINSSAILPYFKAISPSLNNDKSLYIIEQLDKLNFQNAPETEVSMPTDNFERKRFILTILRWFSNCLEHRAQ

| Substance | 1st Challenge Score (pruritus score) (T03, T05, T06, T07: IM) | 1st Challenge Average % Change in pruritus scores (T03, T05, T06, T07: IM) [%] | Percent Change, 1st Challenge vs Historical Score (T03, T05, T06, T07: IM) | 2nd Challenge Average % Change in pruritus scores (T03, T05, T06, T07: IM) [%] | Percent Change, 2nd Challenge vs Historical Score (T03, T05, T06, T07: IM) | 2nd Challenge Score (pruritus score) (T03, T05, T06, T07: IM) | reduction in itch (relative to historic scores) [%] | 1st Challenge Score (pruritus score) (T01, SC) | 1st Challenge Average % Change in pruritus scores (T01, SC) [%] | Percent Change, 1st Challenge vs Historical Score (T01, SC) | 2nd Challenge Average % Change in pruritus scores (T01, SC) [%] | Percent Change, 2nd Challenge vs Historical Score (T01, SC) | 2nd Challenge Score (pruritus score) (T01, SC) |
| --- | --- | --- | --- | --- | --- | --- | --- | --- | --- | --- | --- | --- | --- |
| Ac-CGSGGPIYQLQPKEIQAIIVELQNLSKK-NH2 (not fully specified; printed as Ac-CGSGGPIYQLQPKEIQAIIVELQNLSKK-NH2; numbers in words are those of the source; also: CRM197 conjugate) [ZTS-7241, tested as CRM197 conjugate with SP oil + CpG] | 12 and 5 and 38 | −82.18 | −86.44% and −94.87% and −65.23% | −68.70 | −87.57% and −48.72% and −69.81% | 11 and 50 and 33 | 68 |  |  |  |  |  |  |
| Ac-CGSGKEKGVQKFDS-NH2 (not fully specified; printed as Ac-CGSGKEKGVQKFDS-NH2; numbers in words are those of the source; also: CRM197 conjugate) [ZTS-7242, tested as CRM197 conjugate with SP oil + CpG] | 53 and 45 and 54 | −20.58 | −23.96% and −17.43% and −20.35% | 46.28 | 22.94% and 69.62% | 67 and 115 |  |  |  |  |  |  |  |
| Ac-CGSGNSSAILPYFKAISPSLNNDKSLYIIEQLDKLNF-NH2 (not fully specified; printed as Ac-CGSGNSSAILPYFKAISPSLNNDKSLYIIEQLDKLNF-NH2; numbers in words are those of the source; also: CRM197 conjugate) [ZTS-765, tested as CRM197 conjugate with SP oil + CpG] | 4 and 33 and 21 | −77.62 | −94.54% and −66.33% and −72.00% | −45.03 | −23.60% and −40.82% and −70.67% | 56 and 58 and 22 |  | 17 and 11 | −82.12 | −74.81% and −89.42% | −25.88 | −39.26% and −12.50% | 41 and 91 |
| Ac-C[Ahx]C(mT2b)TEVSMPTDNFERKRFILTC(mT2b)-NH2 [ZTS-7240] | 6 and 21 and 18 | −84.61 | −94.13% and −76.74% and −82.94% | −84.27 | −92.18% and −83.39% and −77.25% | 8 and 15 and 24 | 80 |  |  |  |  |  |  |
